Data: article PMC9377007, “An Unexpected Deuterium-Induced Metabolic Switch in Doxophylline” (ACS Medicinal Chemistry Letters, 2022)

Key:
[1] = Comparative pharmacokinetic study, single-dose administration in mice; format: in vivo; details: for AUC(0-t) / Cmax at 24 h / clearance at 24 h / half-life at 24 h / CL/F at 24 h: male, CD1, mouse, plasma, single dose; for decrease of the area under the curve (AUC) versus doxophylline: oral administration
Experimental: A comparative pharmacokinetic study was then performed by evaluating the plasma concentration profiles of doxophylline and its deuterated analogues after intravenous and oral single-dose administration in mice and minipigs. […] Since the deuterium kinetic isotope effect is often affected by interspecies variability,[28] a PK study was also performed in minipigs. […] A total of 96 CD1 male mice, approximately 6 weeks old and with a body weight of approximately 30 g, were purchased from Envigo RMS srl, (San Pietro al Natisone, UD, Italy). Four males Göttingen minipigs approximately 4-5 months old and weighing 9-11 Kg were purchased from Ellegaard Göttingen Minipigs (Dalmose, Denmark). Protocol for drug administration and blood sampling. Mice. Blood samples were collected under light isoflurane anaesthesia from the sublingual vein at the following time points (n=3): pre-dose and 5, 15, 30 minutes, 1, 2, 4, 8 and 24 hours after i.v. dosing (20 mg/Kg, dose volume 5 mL/Kg) and pre-dose and 15, 30 minutes, 1, 2, 4, 8 and 24 hours after oral gavage dosing (80 mg/Kg, dose volume 5 mL/Kg). Each animal was sampled on each day at a maximum of two alternating time points. Samples were transferred into tubes containing K3EDTA as anticoagulant, centrifuged, and stored at -80 °C. Minipig. Blood samples were collected from the jugular vein at the following time points (n=4): pre-dose and 5, 15, 30 minutes, 1, 2, 4, 8 and 24 hours after i.v. dosing (5 mg/Kg, dose volume 1 mL/Kg) and pre-dose and 15, 30 minutes, 1, 2, 4, 8 and 24 hours after oral gavage dosing (20 mg/Kg, dose volume 4 mL/Kg). Samples were transferred into tubes containing K3EDTA as anticoagulant, centrifuged, and stored at -80 °C. Sample preparation for HPLC-MS analysis. A volume of 50 µL of caffeine solution (1 mg/L in water-methanol 1:1) were added to plasma sample aliquots (50 µL); after the addition of the precipitant solution (100 µL of 10% ice-cold trichloroacetic acid in water), samples were centrifuged at 13,000 rpm for ten minutes and the supernatant injected onto the HPLC system (see supporting information for chromatographic conditions). If the levels of analytes were over range, plasma samples were preventively diluted with blank plasma. Data analysis. Quantification of doxophylline and its deuterated analogues d4 and d7 as well as their main metabolites, 7- theophylline acetic acid (T-COOH), 7-hydroxyethyl theophylline (Eto) and theophylline, was performed by using the calibration curves obtained with the corresponding working standards of the analytes and using caffeine as internal standard. The pharmacokinetic parameters for doxophylline and its deuterated analogues were calculated by plotting the plasma concentration curves versus time obtained from the average values of three animals, using PK Solver 2.0.1 S7

[2] = test system: P. aeruginosa-induced lung injury; test: Pseudomonas aeruginosa-induced lung injury model; format: in vivo; details: P. aeruginosa-treated mice; for MPO activity in lungs / apoptosis in lung tissue, TUNEL assay / collagen deposition (Masson's trichrome) / histological examination by H&E staining / immunohistochemistry of PAR / immunohistochemistry of nitrotyrosine / total BAL cellularity: 80 mg/kg os daily for 7 days; for lung edema, ratio of wet to dry weight of lung tissue: 80 mg/kg os daily, day 7, versus vehicle
Experimental: Lung edema at day 7 was measured as a ratio of wet to dry weight of excised lung tissue (Figure 7c).
Figure 7 Model of pulmonary fibrosis induced by P. aeruginosa. (a) Representative scheme of P. aeruginosa-induced lung injury model. (b) Total BAL cellularity of sham and Pseudomonas-treated mice (treated or not with 80 mg/kg doxophylline, d4-doxophylline, or d7-doxophylline). Results are reported as mean ± SEM of 10 mice for all groups. (c) Wet/dry lung weight ratio of sham and Pseudomonas-treated mice (treated or not with 80 mg/kg doxophylline, d4-doxophylline, or d7-doxophylline). Results are reported as mean ± SEM of 10 mice for all groups. (d) MPO activity in lungs of sham and Pseudomonas-treated mice (treated or not with 80 mg/kg doxophylline, d4-doxophylline, or d7-doxophylline). Results are reported as mean ± SEM of 10 mice for all groups. (e) Representative images of H&E staining of sham and Pseudomonas-treated mice (treated or not with 80 mg/doxophylline, d4-doxophylline, or d7-doxophylline). (f) Representative images of Masson’s trichrome staining of sham and Pseudomonas-treated mice (treated or not with 80 mg/doxophylline, d4-doxophylline and d7-doxophylline). p values: *, p < 0.05; **, p < 0.01; ***, p < 0.001; ****, p < 0.0001. […]
experiments were performed following the new regulations of USA (Animal Welfare Assurance No A5594 - 01), Europe (EU Directive 2010/63) , Italy (D.Lgs 2014/26) and the ARRIVE guidelines.
Tryptic soya agar beads laden with PA were produced as described. The mucoid PA strain NH57388A, was utilized. NH57388A-laden agar beads were prepared the day before inoculation, stored overnight at 4 °C, suspended in sterile PBS to deliver approximately 1 Å~ 106 CFU in 50 μ l per mouse. The inoculation dose […]
Trans-tracheal instillation of beads.
Mice were anaesthetized with inhaled isoflurane delivered initially in an anaesthetic box until unconscious, transferred to a surgical board and maintained under anesthesia with isoflurane via nose cone. The ventral cervical region was sterilized and 1-cm midline skin incision made just cranial to the thoracic inlet. The trachea was visualized by blunt dissection. Traction on the lower jaw was used to extend and straighten the trachea and a 22G intravenous catheter (BD Biosciences) used to cannulate the trachea. A 1-ml syringe, pre-filled with beads suspended in PBS, was attached to the cannuale. The cannulae and syringe were left in-situ for 5-seconds following depression of the plunger, followed by slow withdrawal. The animal was elevated head up to 45- […]
intrapulmonary bead instillation. If evidence of respiratory distress (rapid or labored respiration/ gasping) occurred during the procedure anesthesia was rapidly reversed and oxygen alone administered via nose cone.
The incision was closed with surgical staples. Buprenorphine analgesia was administered subcutaneously post-operatively. Animals were weighed and scored clinically daily. Experiments were terminated at 2-weeks post-inoculation via anesthetic overdose.
Mice were randomly allocated into the following groups. PSEUDOMONAS group: mice were subjected to pseudomonas-induced lung injury (n = 10); PSEUDOMONAS group + doxophylline: Identical to the pseudomonas + vehicle group but were treated daily with doxophylline xo (80 mg/kg os) 1 h after pseudomonas instillation and continued daily for 7 days (n = 10); PSEUDOMONAS group + d4- doxophylline:
Identical to the pseudomonas + vehicle group but were treated daily with doxophylline deuterated d4 (80 mg/kg os) 1 h after pseudomonas instillation and continued daily for 7 days ( n = 10); PSEUDOMONAS group + d7- doxophylline: Identical to the pseudomonas + vehicle group but were treated daily with doxophylline deuterated d7 (80 mg/kg os) 1 h after pseudomonas instillation and continued daily for 7 days (n = 10); SHAM group: mice will receive the vehicle administration daily for 7 days ([…]); SHAM + doxophylline group: […]

AUC(0-t) ([1]; intravenous, 20 mg/kg)	Cmax at 24 h ([1]; intravenous, 20 mg/kg)	clearance at 24 h ([1]; intravenous, 20 mg/kg)	half-life at 24 h ([1]; intravenous, 20 mg/kg)	AUC(0-t) ([1]; oral, 80 mg/kg)	CL/F at 24 h ([1]; oral, 80 mg/kg)	Cmax at 24 h ([1]; oral, 80 mg/kg)	half-life at 24 h ([1]; oral, 80 mg/kg)	decrease of the area under the curve (AUC) versus doxophylline [1]	Structure (SMILES)	MPO activity in lungs [2]	apoptosis in lung tissue, TUNEL assay [2]	collagen deposition (Masson's trichrome) [2]	histological examination by H&E staining [2]	immunohistochemistry of PAR [2]	immunohistochemistry of nitrotyrosine [2]	total BAL cellularity [2]	lung edema, ratio of wet to dry weight of lung tissue [2]
6730 ng·h/mL	15500 ng/mL	48.3 mL/min/kg	1.1 h	55900 ng·h/mL	23.3 mL/min/kg	18700 ng/mL	1.6 h	–	Cn1c(=O)c2c(ncn2CC2OCCO2)n(C)c1=O [doxophylline]	significantly reduced	reverted	effect	reduction of the inflammatory interstitial infiltrate	effect	effect	significantly reduced	considerably decreased
4920 ng·h/mL	10700 ng/mL	68.3 mL/min/kg	1 h	33600 ng·h/mL	40 mL/min/kg	19200 ng/mL	2.1 h	40%	[2H]C1([2H])OC([2H])(C([2H])([2H])n2cnc3c2c(=O)n(C)c(=O)n3C)OC1([2H])[2H] [d7-doxophylline]	significantly reduced	reverted	effect	reduction of the inflammatory interstitial infiltrate	effect	effect	significantly reduced	considerably decreased
5410 ng·h/mL	12300 ng/mL	61.7 mL/min/kg	1.5 h	31400 ng·h/mL	41.7 mL/min/kg	16800 ng/mL	1.7 h	44%	[2H]C1([2H])OC(Cn2cnc3c2c(=O)n(C)c(=O)n3C)OC1([2H])[2H] [d4-doxophylline]	lesser nonsignificant effect	did not have any effect	lesser or no effect	reduction of the inflammatory interstitial infiltrate	lesser or no effect	lesser or no effect	increased total BAL cellularity	–
